The values below come from US9963467B2, “Boronic acid derivatives and therapeutic uses thereof” (Rempex Pharmaceuticals, Inc., priority 2014, dated 2018).

Molecules are shown by their SMILES.

Series [1] has as its target Pa AmpC (Pseudomonas aeruginosa, UniProt P24735). Description: Ki, nitrocefin cleavage by purified enzyme, Pa AmpC. The class given is biochemical. Conditions: nitrocefin reporter substrate; read-out: Ki (Pa AmpC, NCF). The protocol: Ki values of inhibition of purified class A, C and D enzymes were determined spectrophotometrically using nitrocefin as reporter substrate. Purified enzymes were mixed with various concentrations of inhibitors in reaction buffer and incubated for 10 min at room temperature. Nitrocefin was added and substrate cleavage profiles were recorded at 490 nm every 10 sec for 10 min. These experiments confirmed that the described compounds are inhibitors with a broad-spectrum of activity towards various β-lactamases.

Series [2] deals with KP1005 (CTX-M-14). Description: Aztreonam potentiation (MPC@4), KP1005. The class given is cell-based. Conditions: BLI with aztreonam at 4 μg/mL.
The target of series [3] is OXA-48 (Klebsiella pneumoniae, UniProt Q6XEC0). Description: Ki, nitrocefin cleavage by purified enzyme, OXA-48. Conditions: nitrocefin reporter substrate; read-out: Ki (OXA-48, NCF). The class given is biochemical. The procedure, abridged: (§1)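 10 min RT preincubation, enzyme with inhibitor series in reaction buffer. Substrate nitrocefin; kinetic read 490 nm, 10 sec intervals, 10 min total.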
Sequence of OXA-48 (Q6XEC0 23-265, looked up, species assumed): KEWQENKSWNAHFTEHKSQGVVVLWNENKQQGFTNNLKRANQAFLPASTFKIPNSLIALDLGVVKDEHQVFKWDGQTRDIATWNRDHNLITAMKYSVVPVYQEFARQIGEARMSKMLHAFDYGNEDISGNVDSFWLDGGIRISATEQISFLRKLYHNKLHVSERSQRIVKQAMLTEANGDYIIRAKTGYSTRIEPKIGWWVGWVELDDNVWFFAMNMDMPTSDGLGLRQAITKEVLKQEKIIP

The subject of series [4] is KP1009 (CTX-M-15). Description: Tigemonam potentiation (MPC@4), KP1009. The class given is cell-based. Conditions: BLI with tigemonam at 4 μg/mL.
Series [5] addresses SHV-12 (Klebsiella pneumoniae, UniProt P0AD64, E235K/G234S/L31Q). Kind of series: Ki, nitrocefin cleavage by purified enzyme, SHV-12. In kind it is biochemical. Conditions: nitrocefin reporter substrate; read-out: Ki (SHV-12, NCF). The procedure, abridged: as §1
In series [6] the test system is ec308 (SHV-5). Description: Tigemonam potentiation (MPC@4), ec308. The class given is cell-based.
For series [7], the system named is KP1004 (KPC-2). Kind of series: Biapenem potentiation (MPC@1), KP1004. Conditions: BLI with biapenem at 1 μg/mL.
The test system of series [8] is ec302 (TEM-10). Kind of series: Aztreonam potentiation (MPC@4), ec302. The class given is cell-based. To be noted: BLI with aztreonam at 4 μg/mL.
For series [9], the target named is CTX-M-14 (Escherichia coli, UniProt Q9L5C7). Description: Ki, nitrocefin cleavage by purified enzyme, CTX-M-14. In kind it is biochemical. To be noted: nitrocefin reporter substrate; read-out: Ki (CTX-M-14, NCF). The procedure, abridged:
as §1

The subject of series [10] is KP1086 (OXA-48). Description: Biapenem potentiation (MPC@1), KP1086. To be noted: BLI with biapenem at 1 μg/mL.
For series [11], the target named is P99 (Enterobacter cloacae, UniProt P05364). Description: Ki, nitrocefin cleavage by purified enzyme, P99. In kind it is biochemical. To be noted: nitrocefin reporter substrate; read-out: Ki (P99, NCF). In short, it runs like this: as §1
Sequence of P99 (P05364 21-381): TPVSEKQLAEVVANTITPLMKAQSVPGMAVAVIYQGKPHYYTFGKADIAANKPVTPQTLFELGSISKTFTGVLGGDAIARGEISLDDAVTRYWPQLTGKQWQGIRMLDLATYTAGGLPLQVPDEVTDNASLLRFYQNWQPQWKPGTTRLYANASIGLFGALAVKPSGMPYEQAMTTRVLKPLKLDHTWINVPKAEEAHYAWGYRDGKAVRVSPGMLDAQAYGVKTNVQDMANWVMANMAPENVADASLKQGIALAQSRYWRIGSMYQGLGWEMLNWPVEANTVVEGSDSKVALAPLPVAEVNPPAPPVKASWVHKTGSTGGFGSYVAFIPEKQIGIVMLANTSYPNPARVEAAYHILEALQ
Series [12] deals with ECL1002. Kind of series: Tigemonam potentiation (MPC@4), ECL1002. In kind it is cell-based. To be noted: BLI with tigemonam at 4 μg/mL.
Series [13] deals with EC1010 (CMY-6). Kind of series: organism not typed. In kind it is cell-based.
The subject of series [14] is KP1010 (SHV-12). Kind of series: Tigemonam potentiation (MPC@4), KP1010. In kind it is cell-based.
Series [15] deals with ECL1002. Kind of series: Aztreonam potentiation (MPC@4), ECL1002. In kind it is cell-based. Conditions: BLI with aztreonam at 4 μg/mL.
The subject of series [16] is KP1004 (KPC-2). Kind of series: Aztreonam potentiation (MPC@4), KP1004. The class given is cell-based. Conditions: BLI with aztreonam at 4 μg/mL.
Series [17] has as its system KP1005 (CTX-M-14). Kind of series: Tigemonam potentiation (MPC@4), KP1005. To be noted: BLI with tigemonam at 4 μg/mL. In kind it is cell-based.
The target in series [18] is KPC-2 (Klebsiella pneumoniae, UniProt Q9F663). Description: Ki, nitrocefin cleavage by purified enzyme, KPC-2. Conditions: nitrocefin reporter substrate; read-out: Ki (KPC-2, NCF). In kind it is biochemical. In short, it runs like this: as §1
Sequence of KPC-2 (Q9F663 25-293, looked up, species assumed): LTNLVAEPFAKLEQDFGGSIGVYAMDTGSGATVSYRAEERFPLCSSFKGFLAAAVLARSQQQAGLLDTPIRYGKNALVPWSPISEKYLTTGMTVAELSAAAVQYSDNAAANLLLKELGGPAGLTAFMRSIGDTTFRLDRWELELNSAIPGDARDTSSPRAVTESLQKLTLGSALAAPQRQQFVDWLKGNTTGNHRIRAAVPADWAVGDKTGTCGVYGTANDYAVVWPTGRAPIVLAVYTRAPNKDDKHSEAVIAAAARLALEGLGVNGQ
For series [19], the system named is EC1010 (CMY-6). Description: Tigemonam potentiation (MPC@4), EC1010. The class given is cell-based. To be noted: BLI with tigemonam at 4 μg/mL.
Series [20] deals with ec302 (TEM-10). Kind of series: Tigemonam potentiation (MPC@4), ec302. In kind it is cell-based.
A short description of series [21]: Monomer content of pH adjusted aqueous solutions (LC-UV). The class given is physicochemical. To be noted: 1 mg/mL aqueous salt solution, pH adjusted to 7.6 to 8, LC-UV. The protocol: Boronic acid containing compounds are known to undergo oligomerization. The presence of oligomers can greatly complicate drug development, as they represent new chemical species whose content must be controlled and qualified by testing in toxoicology studies. The monomer content of compounds was evaluated by adjusting aqueous solutions to physiological pH at various concentrations. The monomer content of pH adjusted solutions was measured using LC-UV. Test compounds were weighed out into a 1.5 mL Eppendorf tube. A solution of water was prepared in 1.00 mg/mL, 10.0 mg/mL or 100 mg/mL concentrations of the compound based on active fraction. A volume 20 uL was subtracted to allow room for addition of acid or base to adjust pH. The solution pH was measured. The pH was then adjusted through addition of acid or base as necessary until the reading was in the 7.6 to 8 range. A final pH measurement was made after ensuring all the compound was in solution. The solution was injected onto LC-UV in 0.1 uL to 5 uL volume within less than half an hour after the time the sample was prepared. Elution was done using 0.1% TFA in water for mobile phase A and 0.085% TFA in methanol for mobile phase B on an Excel ACE 5 Super C18 2.1×100 mm column at 0.6 ml/min flow rate with 9 min gradient, 3.9 minute hold at 90% B and 18 minute run time. The absorption was measured at 220, 254 and 300 nm with a 4 nm bandwidth.

Sequence of Pa AmpC (P24735 27-397): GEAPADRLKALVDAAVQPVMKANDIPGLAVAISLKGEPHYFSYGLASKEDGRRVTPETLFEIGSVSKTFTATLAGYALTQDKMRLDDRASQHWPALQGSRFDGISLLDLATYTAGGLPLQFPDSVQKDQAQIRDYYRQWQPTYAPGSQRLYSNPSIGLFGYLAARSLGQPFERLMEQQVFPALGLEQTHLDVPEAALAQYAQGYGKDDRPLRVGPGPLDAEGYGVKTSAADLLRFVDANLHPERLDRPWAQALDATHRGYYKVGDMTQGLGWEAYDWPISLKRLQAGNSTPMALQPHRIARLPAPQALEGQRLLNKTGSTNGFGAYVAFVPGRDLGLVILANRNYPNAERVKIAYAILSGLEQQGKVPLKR
Sequence of CTX-M-14 (Q9L5C7 29-291): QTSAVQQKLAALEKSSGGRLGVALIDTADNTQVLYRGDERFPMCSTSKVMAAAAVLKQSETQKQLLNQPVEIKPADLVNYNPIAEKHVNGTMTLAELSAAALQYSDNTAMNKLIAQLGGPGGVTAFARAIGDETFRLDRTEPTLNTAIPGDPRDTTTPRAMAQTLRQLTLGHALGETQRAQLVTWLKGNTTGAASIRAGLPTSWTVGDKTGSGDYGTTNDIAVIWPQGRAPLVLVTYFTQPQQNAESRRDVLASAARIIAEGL
Sequence of SHV-12 (P0AD64 22-286 L31Q/G234S/E235K): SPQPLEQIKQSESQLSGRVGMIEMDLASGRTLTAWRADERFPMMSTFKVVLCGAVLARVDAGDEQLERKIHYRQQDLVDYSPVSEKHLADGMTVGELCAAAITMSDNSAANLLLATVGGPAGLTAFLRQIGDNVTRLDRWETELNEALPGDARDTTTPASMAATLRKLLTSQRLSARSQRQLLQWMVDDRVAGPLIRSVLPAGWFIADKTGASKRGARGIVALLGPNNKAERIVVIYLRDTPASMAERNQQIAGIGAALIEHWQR

Broadly, the Ki is a dissociation constant, usually derived from enzyme kinetics or from competition with a known ligand. Take `O=C(O)CC(=O)N[C@H]1Cc2ccc(F)c(C(=O)O)c2OB1O` [Compound 4, (R)-3-(2-carboxyacetamido)-7-fluoro-2-hydroxy-3,4-dihydro-2H-benzo[e][1,2]oxaborinine-8-carboxylic acid]: the Ki in series [1] was over 0.01 µM; in series [3] it was under 0.001 µM; in [5] it was under 0.001 µM; in [9] it was under 0.001 µM; in series [11] it was over 0.01 µM; in series [18], over 0.01 µM. For the same compound, in [2], the “AZT MPC4 CTX-M-14 KP1005” value was “Y (MIC of 1 μg/mL to 10 μg/mL)”. The “TIG MPC4 CTX-M-15 KP1009” value in [4] is on record as “X (MIC of less than 1 μg/mL)”. In series [6], the “TIG MPC4 SHV-5 ec308” value is listed as “Y (key: X: MIC of less than 1 ng/mL; Y: MIC of 1 μg/mL to 10 μg/mL; Z: MIC of greater than 10 μg/mL)”. Also, in series [7], the “BPM MPC1 KP1004 KPC-2” value is given as “X (MIC of less than 1 μg/mL)”. Also, the “AZT MPC4 TEM-10 ec302” value in series [8] is “Y (MIC of 1 μg/mL to 10 μg/mL)”. For the same compound, the “BPM MPC1 OXA-48 KP1086” value in series [10] is “Z (MIC of greater than 10 μg/mL)”. Moreover, in series [12], the “TIG MPC4 ECL1002” value is on record as “X (MIC of less than 1 μg/mL)”. Further, the “AZT MPC4 CMY-6 EC1010” value in series [13] is “Y (key: X: MIC of less than 1 ng/mL; Y: MIC of 1 μg/mL to 10 μg/mL; Z: MIC of greater than 10 μg/mL)”. Also, the “TIG MPC4 SHV-12 KP1010” value in series [14] is “Y (key: X: MIC of less than 1 ng/mL; Y: MIC of 1 μg/mL to 10 μg/mL; Z: MIC of greater than 10 μg/mL)”. Further, in series [15], the “AZT MPC4 ECL1002” value is “Y (MIC of 1 μg/mL to 10 μg/mL)”. Also, the “AZT MPC4 KPC-2 KP1004” value in series [16] is recorded as “Y (MIC of 1 μg/mL to 10 μg/mL)”. Besides, the “TIG MPC4 CTX-M-14 KP1005” value in series [17] is reported as “Y (MIC of 1 μg/mL to 10 μg/mL)”. Besides, the “TIG MPC4 CMY-6 EC1010” value in [19] is “X (MIC of less than 1 μg/mL)”. Also, the “TIG MPC4 TEM-10 ec302” value in [20] is on record as “Z (key: X: MIC of less than 1 ng/mL; Y: MIC of 1 μg/mL to 10 μg/mL; Z: MIC of greater than 10 μg/mL)”.
With `CSCC(=O)N[C@H]1Cc2ccc(SC3CNC3)c(C(=O)O)c2OB1O` [Compound 11, (R)-7-(azetidin-3-ylthio)-2-hydroxy-3-(2-(methylthio)acetamido)-3,4-dihydro-2H-benzo oxaborinine-8-carboxylic acid], the Ki in series [1] is over 0.01 µM; in [3], 0.001 to 0.01 µM; in series [5], 0.001 to 0.01 µM; in [9] it was 0.001 to 0.01 µM; in series [11], over 0.01 µM; in series [18] it was over 0.01 µM. Besides, the “TIG MPC4 CTX-M-15 KP1009” value in series [4] is given as “Y (MIC of 1 μg/mL to 10 μg/mL)”. In [6], the “TIG MPC4 SHV-5 ec308” value is reported as “X (key: X: MIC of less than 1 μg/mL; Y: MIC of 1 μg/mL to 10 μg/mL; Z: MIC of greater than 10 μg/mL)”. Also, in series [7], the “BPM MPC1 KP1004 KPC-2” value is “X (MIC of less than 1 μg/mL)”. For the same compound, the “AZT MPC4 TEM-10 ec302” value in [8] is given as “Y (MIC of 1 μg/mL to 10 μg/mL)”. Moreover, the “% Monomer in 1 mg/mL salt solution” value in series [21] was 88.0%. Moreover, in series [10], the “BPM MPC1 OXA-48 KP1086” value is reported as “Y (MIC of 1 μg/mL to 10 μg/mL)”. Further, the “TIG MPC4 ECL1002” value in series [12] was “X (MIC of less than 1 μg/mL)”. Moreover, in series [13], the “AZT MPC4 CMY-6 EC1010” value is given as “Y (key: X: MIC of less than 1 ng/mL; Y: MIC of 1 μg/mL to 10 μg/mL; Z: MIC of greater than 10 μg/mL)”. The “TIG MPC4 SHV-12 KP1010” value in series [14] is on record as “X (key: X: MIC of less than 1 μg/mL; Y: MIC of 1 μg/mL to 10 μg/mL; Z: MIC of greater than 10 μg/mL)”. Also, the “AZT MPC4 ECL1002” value in [15] was “Y (MIC of 1 μg/mL to 10 μg/mL)”. The “AZT MPC4 KPC-2 KP1004” value in series [16] is reported as “Y (MIC of 1 μg/mL to 10 μg/mL)”. The “TIG MPC4 CTX-M-14 KP1005” value in series [17] is reported as “X (MIC of less than 1 μg/mL)”. In series [19], the “TIG MPC4 CMY-6 EC1010” value is “X (MIC of less than 1 μg/mL)”. Moreover, the “TIG MPC4 TEM-10 ec302” value in series [20] was “Z (key: X: MIC of less than 1 ng/mL; Y: MIC of 1 μg/mL to 10 μg/mL; Z: MIC of greater than 10 μg/mL)”.
